Measurements from ChEMBL document CHEMBL1821607, “N-Arylalkyl-2-azaadamantanes as cage-expanded polycarbocyclic sigma (σ) receptor ligands” (Bioorg Med Chem Lett, 2011).

Experiments:
[1] = target: Sodium-dependent noradrenaline transporter (Homo sapiens, UniProt P23975); assay: Inhibition of NET transporter at 10 uM by NIMH PDSP
[2] = target: Alpha-2A adrenergic receptor (Homo sapiens, UniProt P08913); assay: Inhibition of alpha-2A adrenergic receptor by NIMH PDSP
[3] = target: Alpha-2B adrenergic receptor (Homo sapiens, UniProt P18089); assay: Inhibition of alpha-2B adrenergic receptor by NIMH PDSP
[4] = target: D(1A) dopamine receptor (Homo sapiens, UniProt P21728); assay: Inhibition of D1 dopamine receptor by NIMH PDSP
Chain of D(1A) dopamine receptor (P21728 whole entry): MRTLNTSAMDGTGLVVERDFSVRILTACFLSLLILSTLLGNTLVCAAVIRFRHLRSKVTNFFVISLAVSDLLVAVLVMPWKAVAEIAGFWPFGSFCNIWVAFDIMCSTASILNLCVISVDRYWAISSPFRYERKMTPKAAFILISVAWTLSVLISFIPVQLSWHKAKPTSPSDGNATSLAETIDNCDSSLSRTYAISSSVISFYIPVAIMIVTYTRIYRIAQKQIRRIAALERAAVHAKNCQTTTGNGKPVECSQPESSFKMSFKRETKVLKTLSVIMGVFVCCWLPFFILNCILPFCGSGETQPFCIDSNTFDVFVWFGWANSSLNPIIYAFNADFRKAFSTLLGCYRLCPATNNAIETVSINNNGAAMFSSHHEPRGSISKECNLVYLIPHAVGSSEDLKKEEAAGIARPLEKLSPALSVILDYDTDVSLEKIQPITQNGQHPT

Chain of Alpha-2B adrenergic receptor (P18089 whole entry): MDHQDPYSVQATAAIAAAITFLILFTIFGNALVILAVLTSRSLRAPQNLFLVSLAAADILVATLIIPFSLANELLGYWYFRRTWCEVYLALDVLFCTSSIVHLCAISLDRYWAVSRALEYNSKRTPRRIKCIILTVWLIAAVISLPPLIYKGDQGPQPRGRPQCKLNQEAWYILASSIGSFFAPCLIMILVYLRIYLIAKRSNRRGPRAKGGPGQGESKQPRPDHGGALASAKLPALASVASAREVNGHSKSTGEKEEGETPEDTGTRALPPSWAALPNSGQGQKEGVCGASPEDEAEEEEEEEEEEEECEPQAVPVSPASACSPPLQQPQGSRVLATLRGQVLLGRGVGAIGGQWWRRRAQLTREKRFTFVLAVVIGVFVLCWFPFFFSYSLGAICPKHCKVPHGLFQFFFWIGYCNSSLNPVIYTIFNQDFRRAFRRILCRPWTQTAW
Chain of Sodium-dependent noradrenaline transporter (P23975 whole entry): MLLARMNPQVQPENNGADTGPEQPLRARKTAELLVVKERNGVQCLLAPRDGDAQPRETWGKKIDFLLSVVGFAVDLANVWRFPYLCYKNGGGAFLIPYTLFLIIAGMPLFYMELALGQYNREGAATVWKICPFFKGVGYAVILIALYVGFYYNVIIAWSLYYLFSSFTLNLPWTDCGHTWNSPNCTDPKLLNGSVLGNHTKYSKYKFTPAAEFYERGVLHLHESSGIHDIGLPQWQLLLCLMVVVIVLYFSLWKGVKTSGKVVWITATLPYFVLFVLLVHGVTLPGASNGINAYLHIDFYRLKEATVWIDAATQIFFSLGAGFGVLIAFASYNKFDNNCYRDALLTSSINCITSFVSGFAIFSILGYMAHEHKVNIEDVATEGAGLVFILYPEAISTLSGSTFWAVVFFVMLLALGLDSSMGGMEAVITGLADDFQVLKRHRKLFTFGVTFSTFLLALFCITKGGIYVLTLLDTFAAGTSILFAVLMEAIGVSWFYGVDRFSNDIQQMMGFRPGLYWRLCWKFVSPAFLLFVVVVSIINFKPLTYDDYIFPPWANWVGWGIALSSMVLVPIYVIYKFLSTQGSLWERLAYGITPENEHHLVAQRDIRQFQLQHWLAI
Chain of Alpha-2A adrenergic receptor (P08913 whole entry): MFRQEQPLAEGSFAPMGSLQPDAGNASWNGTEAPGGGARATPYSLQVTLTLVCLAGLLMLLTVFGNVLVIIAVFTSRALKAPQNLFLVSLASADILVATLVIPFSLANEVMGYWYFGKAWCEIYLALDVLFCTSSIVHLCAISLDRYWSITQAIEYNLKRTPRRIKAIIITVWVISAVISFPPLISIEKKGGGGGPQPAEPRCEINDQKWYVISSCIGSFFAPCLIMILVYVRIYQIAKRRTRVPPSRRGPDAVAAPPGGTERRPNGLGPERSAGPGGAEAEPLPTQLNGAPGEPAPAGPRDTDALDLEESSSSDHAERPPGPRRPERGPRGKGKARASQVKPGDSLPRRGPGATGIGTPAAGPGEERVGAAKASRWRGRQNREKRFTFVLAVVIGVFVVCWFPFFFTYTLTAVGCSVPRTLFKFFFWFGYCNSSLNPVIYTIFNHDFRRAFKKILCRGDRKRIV

SMILES | inhibition [1] | Ki [2] | Ki [3] | Ki [4]
OC12CC3CC(CC(C3)N1Cc1ccccc1)C2 (racemic) | < 50% | > 10 µM | > 10 µM | –
Fc1cccc(CN2C3CC4CC(C3)CC2C4)c1 | – | – | – | > 10 µM
